Our source for the IC50 values is BindingDB's records for PubMed 35144038 (Shaoxing University, 2022).

The test deals with High affinity cGMP-specific 3',5'-cyclic phosphodiesterase 9A (Homo sapiens, UniProt O76083). Kind of test: Inhibition of recombinant human PDE9A1 by radiometric assay.
High affinity cGMP-specific 3',5'-cyclic phosphodiesterase 9A, sequence (O76083 whole entry): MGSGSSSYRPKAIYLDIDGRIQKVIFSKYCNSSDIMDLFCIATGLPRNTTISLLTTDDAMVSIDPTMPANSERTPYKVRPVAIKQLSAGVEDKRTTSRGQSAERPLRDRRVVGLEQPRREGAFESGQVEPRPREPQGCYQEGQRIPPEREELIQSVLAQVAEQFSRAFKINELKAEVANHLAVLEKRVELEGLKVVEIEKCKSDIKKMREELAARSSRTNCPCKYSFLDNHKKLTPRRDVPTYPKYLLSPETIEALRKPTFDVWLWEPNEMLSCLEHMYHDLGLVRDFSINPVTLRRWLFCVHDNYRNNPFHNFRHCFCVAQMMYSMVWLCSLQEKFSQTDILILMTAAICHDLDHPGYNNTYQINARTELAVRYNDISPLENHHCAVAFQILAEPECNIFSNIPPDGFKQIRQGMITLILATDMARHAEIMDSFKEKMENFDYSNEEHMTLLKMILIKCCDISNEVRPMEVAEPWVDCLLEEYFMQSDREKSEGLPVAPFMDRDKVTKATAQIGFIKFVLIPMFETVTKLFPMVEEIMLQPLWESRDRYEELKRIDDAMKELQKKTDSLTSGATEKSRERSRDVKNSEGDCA

The term IC50 denotes the concentration at which inhibition is half-maximal. Turning to `C[C@@H]1CN(Cc2ncccn2)C[C@H]1c1cn2c(C3CCOCC3)ncc2c(=O)[nH]1` [US10513524, Compound (P3], the IC50 was found to be 8.2 nM.
